Measured values: patent publication US11180484B2, “Pyrazole derivatives as plasma kallikrein inhibitors” (KALVISTA PHARMACEUTICALS LIMITED, priority 2016, dated 2021)

Assays:
[1] = Predicted plasma clearance (Clp), well-stirred model, human; type: in vitro ADME; details: percentage of hepatic blood flow
Human plasma kallikrein = Human plasma kallikrein (Homo sapiens (Human), UniProt P03952); assay: Determination of the IC50 for plasma kallikrein; type: biochemical; details: 25° C., substrate H-DPro-Phe-Arg-AFC; read-out: IC50 (human PKal)
Human plasma kallikrein, sequence (P03952 391-638): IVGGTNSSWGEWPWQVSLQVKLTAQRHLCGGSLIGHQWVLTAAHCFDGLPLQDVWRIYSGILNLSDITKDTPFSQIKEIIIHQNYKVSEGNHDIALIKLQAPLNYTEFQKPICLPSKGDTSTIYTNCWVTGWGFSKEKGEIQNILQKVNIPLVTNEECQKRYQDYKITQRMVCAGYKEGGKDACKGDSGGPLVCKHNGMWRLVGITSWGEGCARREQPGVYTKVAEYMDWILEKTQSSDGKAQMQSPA
Human plasma kallikrein, sequence (P03952 20-390): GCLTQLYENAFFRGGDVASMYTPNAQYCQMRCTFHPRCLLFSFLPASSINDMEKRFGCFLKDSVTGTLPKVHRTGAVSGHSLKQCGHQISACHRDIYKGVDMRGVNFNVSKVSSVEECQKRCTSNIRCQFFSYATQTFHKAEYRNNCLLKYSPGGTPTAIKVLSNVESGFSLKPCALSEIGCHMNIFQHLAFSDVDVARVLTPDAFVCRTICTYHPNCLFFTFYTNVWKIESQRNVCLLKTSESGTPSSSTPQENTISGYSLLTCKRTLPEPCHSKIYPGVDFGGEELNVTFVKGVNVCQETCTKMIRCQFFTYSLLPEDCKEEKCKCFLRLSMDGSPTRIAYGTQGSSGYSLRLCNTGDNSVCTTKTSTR
Experimental: Human plasma kallikrein (Protogen) was incubated at 25° C. with the fluorogenic substrate H-DPro-Phe-Arg-AFC and various concentrations of the test compound. Residual enzyme activity (initial rate of reaction) was determined by measuring the change in […] at 410 nm and the IC50 value for the test compound was determined.

[2] = In vitro permeability, Caco-2 model for oral absorption; type: in vitro ADME; details: human, apical to basolateral, 50 μM test compound, 37° C.
In short: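 Caco-2 monolayers grown on collagen inserts for 3 days, with 50 μM compound added apically and incubated 1 hour at 37° C with shaking. Apical-to-basolateral transport measured by LCMS in both compartments. Monolayer integrity checked by TEER before and after, and by Lucifer Yellow flux.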

Human FXIa = Human FXIa (Homo sapiens (Human), UniProt P03951); assay: Determination of the % inhibition / IC50 for FXIa; type: biochemical; details: for inhibition at 40 µM: 40 μM test compound, read-out: % Inhibition @ 40 μM (human FXIa); for IC50: 25° C., substrate Z-Gly-Pro-Arg-AFC
Human FXIa, sequence (P03951 388-625): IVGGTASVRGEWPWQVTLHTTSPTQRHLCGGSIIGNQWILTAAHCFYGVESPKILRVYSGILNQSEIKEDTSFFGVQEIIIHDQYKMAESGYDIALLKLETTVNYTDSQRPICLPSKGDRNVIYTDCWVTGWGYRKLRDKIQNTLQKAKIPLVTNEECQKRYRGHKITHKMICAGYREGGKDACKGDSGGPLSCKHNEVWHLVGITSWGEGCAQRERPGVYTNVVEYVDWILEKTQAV
Human FXIa, sequence (P03951 19-387): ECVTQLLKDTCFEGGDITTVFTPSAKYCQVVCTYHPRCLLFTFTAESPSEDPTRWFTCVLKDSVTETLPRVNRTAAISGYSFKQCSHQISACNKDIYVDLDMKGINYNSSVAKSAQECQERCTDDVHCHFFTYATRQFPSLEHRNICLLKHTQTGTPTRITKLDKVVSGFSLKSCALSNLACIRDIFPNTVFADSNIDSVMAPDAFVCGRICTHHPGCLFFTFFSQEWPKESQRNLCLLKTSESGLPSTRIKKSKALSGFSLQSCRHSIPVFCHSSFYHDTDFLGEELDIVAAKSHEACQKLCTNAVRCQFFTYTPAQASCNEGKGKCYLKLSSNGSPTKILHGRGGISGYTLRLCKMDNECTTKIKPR
Experimental: FXIa inhibitory activity in vitro was determined using standard published methods (see e.g. Johansen et al., Int. J. Tiss. Reac. 1986, 8, 185; Shori et al., Biochem. Pharmacol., 1992, 43, 1209; Sturzebecher et al., Biol. Chem. Hoppe-Seyler, 1992, 373, 1025). […]

| Predicted in vivo human Clp (% LBF) [1] [% LBF] | IC50 (Human plasma kallikrein) [nM] | Papp at 1 h, 50 μM [2] [×10⁻⁶ cm/s] | inhibition at 40 µM (Human FXIa) [%] | IC50 (Human FXIa) [nM] | SMILES |
| --- | --- | --- | --- | --- | --- |
| 21 | 0.6 | 6 | 91 | 3700 | COCc1nn(Cc2ccc(Cn3ccccc3=O)cc2)cc1C(=O)NCc1c(-n2cnnn2)ccc(OC)c1F [Example 39, N-{[2-Fluoro-3-methoxy-6-(1,2,3,4-tetrazol-1-yl)phenyl]methyl}-3-(methoxymethyl)-1-({4-[(2-oxopyridin-1-yl)methyl]phenyl}methyl)pyrazole-4-carboxamide] |
| 1 | 1.5 | 19 | 96 | 127 | COCc1nn(Cc2cnc(N3CCCC3)nc2)cc1C(=O)NCc1c(-n2cnnn2)ccc(OC)c1F [Example 79, N-{[2-Fluoro-3-methoxy-6-(1,2,3,4-tetrazol-1-yl)phenyl]methyl}-3-(methoxymethyl)-1-{[2-(pyrrolidin-1-yl)pyrimidin-5-yl]methyl}pyrazole-4-carboxamide] |
